# Reference: patent US8883826B2, “Alkynyl derivatives as modulators of metabotropic glutamate receptors” (Addex Pharma SA, priority 2004, dated 2014)
# Molecular target: T1, mGluR5 (Rattus norvegicus, UniProt P31424)
# T1 construct: tissue Charles River Laboratories; host or cells: rat brain cortex membranes (Sprague-Dawley)
# Assay: mGluR5 binding assay ([3H]-MPEP radioligand competition)
# Details: competition with 3 nM [3H]-MPEP, rat brain cortical membranes, 1 h at 4 °C; mean of at least three independent experiments in duplicate
# Text: Activity of compounds of the invention was examined following a radioligand binding technique using whole rat brain and tritiated 2-methyl-6-(phenylethynyl)-pyridine ([^3H]-MPEP) as a ligand following similar methods than those described in F. Gasparini et al. Bioorg. Med. Chem. Lett. 2002, 12, 407-409 and in J. F. Anderson et al. J. Pharmacol. Exp. Ther. 2002, 303, 3, 1044-1051.
# Cortices were dissected out from brains of 200-300 g Sprague-Dawley rats (Charles River Laboratories, L'Arbresle, France). Tissues were homogenized in 10 volumes (vol/wt) of ice-cold 50 mM Hepes-NaOH (pH 7.4) using a Polytron disrupter (Kinematica AG, Luzern, Switzerland) and centrifuged for 30 min at 40,000 g. (4° C.). The supernatant was discarded and the pellet washed twice by resuspension in 10 volumes 50 mM HEPES-NaOH. Membranes were then collected by centrifugation and washed before final resuspension in 10 volumes of 20 mM HEPES-NaOH, pH 7.4. Protein concentration was determined by the Bradford method (Bio-Rad protein assay, Reinach, Switzerland) with bovine serum albumin as standard.
# [^3H]-MPEP Binding Experiments:
# Membranes were thawed and resuspended in binding buffer containing 20 mM HEPES-NaOH, 3 mM MgCl2, 3 mM CaCl2, 100 mM NaCl, pH 7.4. Competition studies were carried out by incubating for 1 h at 4° C.: 3 nM [^3H]-MPEP (39 Ci/mmol, Tocris, Cookson Ltd, Bristol, U.K.), 50 μg membrane and a concentration range of 0.003 nM-30 μM of compounds, for a total reaction volume of 300 μl. The non-specific binding was defined using 30 μM MPEP. Reaction was terminated by rapid filtration over glass-fiber filter plates (Unifilter 96-well GF/B filter plates, Perkin-Elmer, Schwerzenbach, Switzerland) using 4×400 μl ice cold buffer using cell harvester (Filtermate, Perkin-Elmer, Downers Grove, USA). Radioactivity was determined by liquid scintillation spectrometry using a 96-well plate reader (TopCount, Perkin-Elmer, Downers Grove, USA).
# The inhibition curves were generated using the Prism GraphPad program (Graph Pad Software Inc, San Diego, USA). IC50 determinations were made from data obtained from 8 point-concentration response curves using a non linear regression analysis.
# The table below represents the mean of IC50 obtained from at least three independent experiments of selected molecules performed in duplicate.
# T1 sequence (P31424 21-1203): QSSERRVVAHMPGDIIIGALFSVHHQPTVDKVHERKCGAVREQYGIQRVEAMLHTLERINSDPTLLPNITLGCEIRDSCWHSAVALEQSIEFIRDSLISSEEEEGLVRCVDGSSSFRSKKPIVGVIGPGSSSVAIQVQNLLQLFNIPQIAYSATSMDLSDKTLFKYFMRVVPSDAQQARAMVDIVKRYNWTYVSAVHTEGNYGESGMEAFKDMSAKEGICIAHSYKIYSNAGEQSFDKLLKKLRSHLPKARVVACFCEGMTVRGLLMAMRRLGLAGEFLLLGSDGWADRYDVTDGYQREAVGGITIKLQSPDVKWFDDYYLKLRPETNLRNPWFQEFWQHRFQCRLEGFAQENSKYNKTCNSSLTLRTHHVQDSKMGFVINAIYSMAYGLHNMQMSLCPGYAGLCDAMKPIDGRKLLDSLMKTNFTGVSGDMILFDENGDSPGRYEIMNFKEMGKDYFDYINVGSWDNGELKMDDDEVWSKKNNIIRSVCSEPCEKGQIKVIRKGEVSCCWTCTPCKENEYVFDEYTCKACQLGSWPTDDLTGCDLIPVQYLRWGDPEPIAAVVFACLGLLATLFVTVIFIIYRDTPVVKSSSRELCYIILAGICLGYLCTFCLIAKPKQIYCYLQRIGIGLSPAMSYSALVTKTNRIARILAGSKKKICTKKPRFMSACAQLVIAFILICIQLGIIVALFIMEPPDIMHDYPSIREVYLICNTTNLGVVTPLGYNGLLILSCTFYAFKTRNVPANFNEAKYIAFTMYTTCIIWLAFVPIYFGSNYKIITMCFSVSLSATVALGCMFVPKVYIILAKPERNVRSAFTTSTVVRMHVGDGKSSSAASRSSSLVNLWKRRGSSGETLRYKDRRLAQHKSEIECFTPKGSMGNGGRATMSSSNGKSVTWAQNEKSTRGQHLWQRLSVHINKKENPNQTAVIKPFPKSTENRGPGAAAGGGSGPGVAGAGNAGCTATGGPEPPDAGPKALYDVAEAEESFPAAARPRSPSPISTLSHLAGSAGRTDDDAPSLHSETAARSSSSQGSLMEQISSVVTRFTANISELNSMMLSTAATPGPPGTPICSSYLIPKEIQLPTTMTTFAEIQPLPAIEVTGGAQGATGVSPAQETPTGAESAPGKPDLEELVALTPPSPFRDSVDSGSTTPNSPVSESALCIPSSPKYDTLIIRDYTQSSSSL
row,SMILES,IC50
1,"Cc1ccc2oc(CCC#Cc3ccccn3)nc2c1 [Example 28, 5-Methyl-(2-(4-pyridin-2-yl)but-3-ynyl)benzo[d]oxazole]",< 10 µM
2,"Cc1ccc2nc(CCC#Cc3ccccn3)oc2c1 [Example 29, 6-Methyl-(2-(4-pyridin-2-yl)but-3-ynyl)benzo[d]oxazole]",< 10 µM
3,"Cc1cccc2oc(CCC#Cc3ccccn3)nc12 [Example 30, 4-Methyl-(2-(4-pyridin-2-yl)but-3-ynyl)benzo[d]oxazole]",< 10 µM
4,"Cc1nc(C#CCCc2nc3ccccc3o2)cs1 [Example 31, 2-(4-(2-Methylthiazol-4-yl)but-3-ynyl)benzo[d]oxazole]",< 0.05 µM
5,"C(#Cc1ccccn1)CCc1cn2ccccc2n1 [Example 33, 2-(4-(Pyridin-2-yl)but-3-ynyl)-imidazo[1,2-a]pyridine]",< 0.05 µM
6,"COc1ccccc1-c1noc(CCC#Cc2ccccn2)n1 [Example 40, 2-(4-(3-(2-Methoxyphenyl)-1,2,4-oxadiazol-5-yl)but-1-ynyl)pyridine]",< 10 µM
7,"COc1cccc(-c2noc(CCC#Cc3ccccn3)n2)c1 [Example 41, 2-(4-(3-(3-Methoxyphenyl)-1,2,4-oxadiazol-5-yl)but-1-ynyl)pyridine]",< 10 µM
8,"COc1ccc(-c2noc(CCC#Cc3ccccn3)n2)cc1 [Example 42, 2-(4-(3-(4-Methoxyphenyl)-1,2,4-oxadiazol-5-yl)but-1-ynyl)pyridine]",< 10 µM
9,"Cc1cccc(-c2noc(CCC#Cc3ccccn3)n2)c1 [Example 43, 2-(4-(3-m-Tolyl-1,2,4-oxadiazol-5-yl)but-1-ynyl)pyridine]",< 10 µM
10,"Cc1ccc(-c2noc(CCC#Cc3ccccn3)n2)cc1 [Example 44, 2-(4-(3-p-Tolyl-1,2,4-oxadiazol-5-yl)but-1-ynyl)pyridine]",< 10 µM
11,"Clc1ccccc1-c1noc(CCC#Cc2ccccn2)n1 [Example 45, 2-(4-(3-(2-Chlorophenyl)-1,2,4-oxadiazol-5-yl)but-1-ynyl)pyridine]",< 10 µM
12,"Clc1cccc(-c2noc(CCC#Cc3ccccn3)n2)c1 [Example 46, 2-(4-(3-(3-Chlorophenyl)-1,2,4-oxadiazol-5-yl)but-1-ynyl)pyridine]",< 10 µM
13,"Cc1cccc(C)c1-c1noc(CCC#Cc2ccccn2)n1 [Example 48, 2-(4-(3-(2,6-Dimethylphenyl)-1,2,4-oxadiazol-5-yl)but-1-ynyl)pyridine]",< 0.5 µM
14,FC(F)(F)c1ccccc1-c1noc(CCC#Cc2ccccn2)n1 [Example 49],< 10 µM
15,"C(#Cc1ccccn1)CCc1nc(-c2cccc3ccccc23)no1 [Example 50, 2-(4-(3-(Naphthalen-1-yl)-1,2,4-oxadiazol-5-yl)but-1-ynyl)pyridine]",< 10 µM
16,"Cc1cccc(-c2noc(CCC#Cc3ccccn3)n2)c1C [Example 52, 2-(4-(3-(2,3-Dimethylphenyl)-1,2,4-oxadiazol-5-yl)but-1-ynyl)pyridine]",< 10 µM
17,"Clc1ccc(Cl)c(-c2noc(CCC#Cc3ccccn3)n2)c1 [Example 53, 2-(4-(3-(2,5-Dichlorophenyl)-1,2,4-oxadiazol-5-yl)but-1-ynyl)pyridine]",< 10 µM
18,"Cc1ccc(C)c(-c2noc(CCC#Cc3ccccn3)n2)c1 [Example 54, 2-(4-(3-(2,5-Dimethylphenyl)-1,2,4-oxadiazol-5-yl)but-1-ynyl)pyridine]",< 10 µM
19,"Clc1cccc(Cl)c1-c1noc(CCC#Cc2ccccn2)n1 [Example 55, 2-(4-(3-(2,6-Dichlorophenyl)-1,2,4-oxadiazol-5-yl)but-1-ynyl)pyridine]",< 10 µM
20,"Clc1cccc(-c2noc(CCC#Cc3ccccn3)n2)c1Cl [Example 56, 2-(4-(3-(2,3-Dichlorophenyl)-1,2,4-oxadiazol-5-yl)but-1-ynyl)pyridine]",< 10 µM

row,SMILES,IC50
1,"Cc1cccc(Cl)c1-c1noc(CCC#Cc2ccccn2)n1 [Example 58, 2-(4-(3-(2-Chloro-6-methylphenyl)-1,2,4-oxadiazol-5-yl)but-1-ynyl)pyridine]",< 10 µM
2,"FC(F)(F)Oc1ccccc1-c1noc(CCC#Cc2ccccn2)n1 [Example 61, 2-(4-(3-(2-(Trifluoromethoxy)phenyl)-1,2,4-oxadiazol-5-yl)but-1-ynyl)pyridine]",< 10 µM
3,"Fc1ccc2nc(CCC#Cc3ccccn3)oc2c1 [Example 62, 6-Fluoro-2-(4-(pyridin-2-yl)but-3-ynyl)benzo[d]oxazole]",< 0.05 µM
4,"Clc1cccc2nc(CCC#Cc3ccccn3)oc12 [Example 63, 7-Chloro-2-(4-(pyridin-2-yl)but-3-ynyl)benzo[d]oxazole]",< 0.05 µM
5,"Fc1cccc2nc(CCC#Cc3ccccn3)oc12 [Example 64, 7-Fluoro-2-(4-(pyridin-2-yl)but-3-ynyl)benzo[d]oxazole]",< 0.05 µM
6,"C(#Cc1ccccn1)CCc1ncc(-c2ccccc2)o1 [Example 65, 2-(4-(5-Phenyloxazol-2-yl)but-1-ynyl)pyridine]",< 0.05 µM
7,"Cc1c(Cl)cccc1-c1noc(CCC#Cc2ccccn2)n1 [Example 66, 2-(4-(3-(3-Chloro-2-methylphenyl)-1,2,4-oxadiazol-5-yl)but-1-ynyl)pyridine]",< 0.5 µM
8,"Cc1cccn2cc(CCC#Cc3ccccn3)nc12 [Example 67, 8-Methyl-2-(4-(pyridin-2-yl)but-3-ynyl)-imidazo[1,2-a]pyridine]",< 10 µM
9,"Cc1cccc2nc(CCC#Cc3ccccn3)cn12 [Example 68, 5-Methyl-2-(4-(pyridin-2-yl)but-3-ynyl)-imidazo[1,2-a]pyridine]",< 10 µM
10,"C(#Cc1ccccn1)CCc1cn2c(-c3ccccc3)cccc2n1 [Example 69, 5-Phenyl-2-(4-(pyridin-2-yl)but-3-ynyl)-imidazo[1,2-a]pyridine]",< 0.05 µM
11,"Oc1cccc2oc(CCC#Cc3ccccn3)nc12 [Example 70, 2-(4-(Pyridin-2-yl)but-3-ynyl)benzo[d]oxazol-4-ol]",< 10 µM
12,"Fc1ccc(C#CCCc2nc3ccccc3o2)nc1 [Example 71, 2-(4-(5-Fluoropyridin-2-yl)but-3-ynyl)benzo[d]oxazole]",< 10 µM
13,"COc1cccc2oc(CCC#Cc3ccccn3)nc12 [Example 72, 4-Methoxy-2-(4-(pyridin-2-yl)but-3-ynyl)benzo[d]oxazole]",< 10 µM
14,"Cc1nc(C#CCCc2cn3ccccc3n2)cs1 [Example 73, 2-(4-(2-Methylthiazol-4-yl)but-3-ynyl)imidazo[1,2-a]pyridine]",< 10 µM
15,"Fc1ccc2nc(CCC#Cc3ccccn3)cn2c1 [Example 74, 6-Fluoro-2-(4-(pyridin-2-yl)but-3-ynyl)-imidazo[1,2-a]pyridine]",< 10 µM
16,"Fc1ccc(C#CCCc2cn3ccccc3n2)nc1 [Example 75, 2-(4-(5-Fluoropyridin-2-yl)but-3-ynyl)-imidazo[1,2-a]pyridine]",< 10 µM
17,"C(#Cc1ccccn1)CCc1nc2cccnc2o1 [Example 76, 2-(4-(Pyridin-2-yl)but-3-ynyl)oxazolo[5,4-b]pyridine]",< 10 µM
18,"Fc1cc(Cl)c2oc(CCC#Cc3ccccn3)nc2c1 [Example 77, 7-Chloro-5-fluoro-2-(4-(pyridin-2-yl)but-3-ynyl)benzo[d]oxazole]",< 0.05 µM
19,"C(#Cc1ccccn1)CCc1nc2ncccc2o1 [Example 78, 2-(4-(Pyridin-2-yl)but-3-ynyl)oxazolo[4,5-b]pyridine]",< 10 µM
20,"N#Cc1ccc2oc(CCC#Cc3ccccn3)nc2c1 [Example 79, 2-(4-(Pyridin-2-yl)but-3-ynyl)benzo[d]oxazole-5-carbonitrile]",< 10 µM
